Laboratory results from US9999622B2, “Pyrazolothiazole compound and medicine comprising same” (NIPPON SHINYAKU CO., LTD., priority 2014, dated 2018).
Counter-ions that a name gives are not always drawn.

How the values were obtained:
JAK1 = molecular target: T1, JAK1 (Homo sapiens, UniProt P23458); experiment: JAK tyrosine kinase inhibitory activity in the presence of 1 mM ATP (ELISA), JAK1; type: biochemical
T1 construct: purchased Carna Biosciences, Inc
How it was run: (§1)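 ELISA read-out: HRP-labelled anti-phosphotyrosine antibody with TMB, absorbance 450 nm, after 1 h kinase reaction at 30 °C in presence of 1 mM ATP. Kinase diluted to 7.5 nM (JAK1) or 0.75 nM (JAK2/JAK3) in Tris-HCl pH 7.5 buffer with DTT; compounds tested in duplicate.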

JAK3 = molecular target: T2, JAK3 (Homo sapiens, UniProt P52333); experiment: JAK tyrosine kinase inhibitory activity in the presence of 1 mM ATP (ELISA), JAK3; type: biochemical
T2 construct: purchased Carna Biosciences, Inc
T2 sequence (P52333 1-1124): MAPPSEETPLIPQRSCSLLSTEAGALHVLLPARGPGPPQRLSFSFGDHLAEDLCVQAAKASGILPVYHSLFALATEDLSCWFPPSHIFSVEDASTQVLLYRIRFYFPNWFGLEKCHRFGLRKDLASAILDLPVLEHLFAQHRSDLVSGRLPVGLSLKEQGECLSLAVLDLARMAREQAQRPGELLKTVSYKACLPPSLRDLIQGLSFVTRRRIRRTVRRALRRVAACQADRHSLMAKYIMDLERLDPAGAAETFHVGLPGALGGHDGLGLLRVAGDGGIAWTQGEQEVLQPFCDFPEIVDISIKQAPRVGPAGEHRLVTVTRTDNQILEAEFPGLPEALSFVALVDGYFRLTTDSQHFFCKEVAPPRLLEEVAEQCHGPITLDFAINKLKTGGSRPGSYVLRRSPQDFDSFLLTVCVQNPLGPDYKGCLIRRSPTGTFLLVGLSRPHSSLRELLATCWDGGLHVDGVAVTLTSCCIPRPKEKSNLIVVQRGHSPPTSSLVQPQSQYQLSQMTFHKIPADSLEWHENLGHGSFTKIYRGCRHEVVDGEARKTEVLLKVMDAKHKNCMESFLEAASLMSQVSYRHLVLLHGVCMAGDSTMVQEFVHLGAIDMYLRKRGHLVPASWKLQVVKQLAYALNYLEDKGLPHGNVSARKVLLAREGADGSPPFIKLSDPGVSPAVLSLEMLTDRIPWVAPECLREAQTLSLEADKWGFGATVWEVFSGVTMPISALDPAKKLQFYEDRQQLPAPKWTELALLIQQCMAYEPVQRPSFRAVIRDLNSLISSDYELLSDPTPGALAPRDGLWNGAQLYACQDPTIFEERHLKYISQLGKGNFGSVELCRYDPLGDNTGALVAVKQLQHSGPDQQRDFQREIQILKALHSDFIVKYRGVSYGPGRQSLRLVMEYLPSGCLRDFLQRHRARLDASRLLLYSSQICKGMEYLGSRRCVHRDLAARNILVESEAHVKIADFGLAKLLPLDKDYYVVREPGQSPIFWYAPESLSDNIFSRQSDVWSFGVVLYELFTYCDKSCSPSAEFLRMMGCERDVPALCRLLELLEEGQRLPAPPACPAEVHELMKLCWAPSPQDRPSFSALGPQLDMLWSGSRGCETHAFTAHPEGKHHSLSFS
How it was run: as §1

JAK2 = molecular target: T3, JAK2 (Homo sapiens, UniProt O60674); experiment: JAK tyrosine kinase inhibitory activity in the presence of 1 mM ATP (ELISA), JAK2; type: biochemical
T3 construct: purchased Carna Biosciences, Inc
How it was run: as §1

[1] = system: Aspergillus-induced airway inflammation model; experiment: Inhibitory effect on Aspergillus-induced airway inflammation model; type: in vivo; settings: mice; for inhibition in vivo at 10000 µg/mL, 100 mg/kg: Mus musculus, Eosinophil, po, 240 h, 10 mg/mL suspension at 10 mL/kg twice a day Day 0 to Day 9, BALF collected at Day 10, read-out: Inhibition rate on count of invasive eosinophil in BALF (%); for Inhibition rate on count of invasive eosinophil in BALF (%): oral, 10 mg/mL suspension at 10 mL/kg twice a day Day 0 to Day 9, BALF collected at Day 10
Method: Aspergillus fumigatus extracts (Greer laboratories, Inc.) were adjusted to 400 μg/mL with PBS. The Aspergillus fumigatus solutions thus prepared were administered to mice as nasal drops (50 μL) on Day 0, Day 1, Day 7 and Day 8. The nasal drop was administered one hour after the administration of test compounds in the morning. The test compound was administered twice a day in the morning and evening of Day 0 to Day 9. The test compound was suspended in 0.5% methylcellulose at 10 mg/mL, and orally administered at the dosage of 10 mL/kg. The bronchoalveolar lavage fluid (BALF) was collected at Day 10, and the total white blood cell count in BALF was measured using Celltac (NIHON KOHDEN). The ratio of eosinophil in total white blood cell was calculated using ADVIA 120 (Siemens Healthcare Diagnostics), and the ratio was multiplied by the total white blood cell count to determine the eosinophil count in BALF. The inhibition rate of the test compound was determined, assuming the inhibitory ratio in the treatment with Aspergillus fumigatus extract and 0.5% methylcellulose as 0% and the inhibitory ratio in the treatment without Aspergillus fumigatus extract but with 0.5% methylcellulose as 100%.

T3 sequence (O60674 whole entry): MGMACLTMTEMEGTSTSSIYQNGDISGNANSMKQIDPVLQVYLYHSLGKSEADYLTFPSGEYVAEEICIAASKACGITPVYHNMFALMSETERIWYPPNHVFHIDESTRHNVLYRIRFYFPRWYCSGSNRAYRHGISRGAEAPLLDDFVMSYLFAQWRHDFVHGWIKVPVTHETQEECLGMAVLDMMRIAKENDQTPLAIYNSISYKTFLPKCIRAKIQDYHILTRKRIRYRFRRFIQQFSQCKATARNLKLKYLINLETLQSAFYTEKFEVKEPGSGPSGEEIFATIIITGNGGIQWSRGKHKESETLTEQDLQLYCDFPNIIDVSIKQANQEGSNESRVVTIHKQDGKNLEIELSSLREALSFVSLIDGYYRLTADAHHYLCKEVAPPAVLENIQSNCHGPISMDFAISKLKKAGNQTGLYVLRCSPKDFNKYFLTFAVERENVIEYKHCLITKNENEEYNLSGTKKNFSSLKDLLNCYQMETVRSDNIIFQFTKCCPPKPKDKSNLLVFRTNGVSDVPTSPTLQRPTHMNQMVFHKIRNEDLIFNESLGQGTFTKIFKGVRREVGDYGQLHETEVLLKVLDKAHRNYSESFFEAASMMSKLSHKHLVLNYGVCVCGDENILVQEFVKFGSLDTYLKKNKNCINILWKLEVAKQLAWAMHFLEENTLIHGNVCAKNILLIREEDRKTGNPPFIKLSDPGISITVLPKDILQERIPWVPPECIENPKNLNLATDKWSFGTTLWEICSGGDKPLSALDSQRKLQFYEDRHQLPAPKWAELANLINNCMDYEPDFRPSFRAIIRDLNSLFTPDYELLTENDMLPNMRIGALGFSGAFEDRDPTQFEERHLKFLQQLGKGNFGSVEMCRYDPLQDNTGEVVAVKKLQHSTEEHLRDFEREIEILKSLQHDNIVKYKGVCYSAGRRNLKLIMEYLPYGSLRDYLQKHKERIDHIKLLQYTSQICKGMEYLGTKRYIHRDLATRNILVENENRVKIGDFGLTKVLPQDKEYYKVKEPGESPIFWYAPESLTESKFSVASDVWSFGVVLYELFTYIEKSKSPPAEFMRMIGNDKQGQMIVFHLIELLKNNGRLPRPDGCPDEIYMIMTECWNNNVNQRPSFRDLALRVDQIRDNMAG
T1 sequence (P23458 whole entry): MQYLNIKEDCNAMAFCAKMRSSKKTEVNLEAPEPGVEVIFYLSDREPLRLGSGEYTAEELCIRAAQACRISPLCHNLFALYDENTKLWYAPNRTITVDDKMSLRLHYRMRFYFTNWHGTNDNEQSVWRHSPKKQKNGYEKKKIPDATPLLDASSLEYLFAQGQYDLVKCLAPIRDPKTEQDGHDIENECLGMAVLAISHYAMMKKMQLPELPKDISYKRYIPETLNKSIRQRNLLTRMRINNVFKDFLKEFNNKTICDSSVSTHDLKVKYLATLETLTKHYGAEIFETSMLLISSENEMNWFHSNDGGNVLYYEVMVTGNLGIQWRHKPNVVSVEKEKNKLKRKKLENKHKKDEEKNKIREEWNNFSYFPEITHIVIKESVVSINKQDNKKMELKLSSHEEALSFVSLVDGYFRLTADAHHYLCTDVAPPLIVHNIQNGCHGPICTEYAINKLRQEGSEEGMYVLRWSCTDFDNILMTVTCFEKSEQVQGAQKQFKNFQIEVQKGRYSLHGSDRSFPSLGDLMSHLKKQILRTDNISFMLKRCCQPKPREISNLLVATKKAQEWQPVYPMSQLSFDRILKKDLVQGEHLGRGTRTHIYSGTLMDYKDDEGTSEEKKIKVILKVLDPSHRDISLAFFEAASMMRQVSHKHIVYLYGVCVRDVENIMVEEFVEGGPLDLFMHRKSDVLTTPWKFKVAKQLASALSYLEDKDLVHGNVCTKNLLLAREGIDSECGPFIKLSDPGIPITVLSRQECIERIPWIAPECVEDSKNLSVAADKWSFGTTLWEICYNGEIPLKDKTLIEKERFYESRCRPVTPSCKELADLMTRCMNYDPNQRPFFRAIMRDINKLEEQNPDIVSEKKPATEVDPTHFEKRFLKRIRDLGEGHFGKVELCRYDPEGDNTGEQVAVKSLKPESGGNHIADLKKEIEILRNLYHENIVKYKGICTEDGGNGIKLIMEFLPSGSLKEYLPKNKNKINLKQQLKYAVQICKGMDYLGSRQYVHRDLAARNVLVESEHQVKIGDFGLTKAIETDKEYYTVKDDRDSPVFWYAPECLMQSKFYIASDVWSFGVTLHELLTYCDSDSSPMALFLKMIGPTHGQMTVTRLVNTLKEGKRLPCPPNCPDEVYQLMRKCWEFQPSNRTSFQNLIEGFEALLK

SMILES | IC50 (JAK1) [nM] | IC50 (JAK3) [nM] | IC50 (JAK2) [nM] | inhibition in vivo at 10000 µg/mL, 100 mg/kg [1] [%] | Inhibition rate on count of invasive eosinophil in BALF (%) ([1]; hydrochloride) | Inhibition rate on count of invasive eosinophil in BALF (%) [1] [%]
CCC(CC)Nc1cc(C(=O)N2CCC(O)CC2)nc(-c2cnn3ccsc23)n1 [Example 81, (4-Hydroxypiperidin-1-yl) [6-(pentan-3-ylamino)-2-(pyrazolo[5,1-b][1,3]thiazol-7-yl)pyrimidin-4-yl]methanone hydrochloride] | 1600 | 3300 | 2200 | 43 | – | –
COC(=O)NC1CCN(C(=O)c2cc(NCC(C)(C)C)nc(-c3cnn4ccsc34)n2)CC1 [Example 87, Methyl [1-({6-[(2,2-dimethylpropyl)amino]-2-(pyrazolo[5,1-b][1,3]thiazol-7-yl)pyrimidin-4-yl}carbonyl)piperidin-4-yl]carbamate hydrochloride] | 250 | 9500 | 1600 | 24 | – | –
C[C@@H](Nc1cc(C(=O)N2CCC(O)CC2)nc(-c2cnn3ccsc23)n1)C(C)(C)C [Example 62, [6-{[(2R)-3,3-Dimethylbutan-2-yl]amino}-2-(pyrazolo[5,1-b][1,3]thiazol-7-yl)pyrimidin 4 yl](4-hydroxypiperidin-1-yl)methanone hydrochloride] | 10 | 1100 | 1000 | 36 | – | –
C[C@@H](Nc1cc(C(=O)N2CCC(NC(=O)OCC(F)F)CC2)nc(-c2cnn3ccsc23)n1)C1CC1 [Example 96, 2,2-Difluoroethyl (1-{[6-{[(1R)-1-cyclopropylethyl]amino}-2-(pyrazolo[5,1-b][1,3]thiazol-7-yl)pyrimidin-4-yl]carbonyl}piperidin-4-yl)carbamate hydrochloride] | 250 | 2200 | 1000 | 51 | – | –
COC(=O)NC1CCN(C(=O)c2cc(N[C@H](C)C(C)C)nc(-c3cnn4ccsc34)n2)CC1 [Example 24, Methyl (1-{[6-{[(2R)-3-methylbutan-2-yl]amino}-2-(pyrazolo[5,1-b][1,3]thiazol-7-yl)pyrimidin-4-yl]carbonyl}piperidin-4-yl)carbamate hydrochloride] | 290 | 4200 | 1500 | 35 | – | –
CCOC(=O)NC1CCN(C(=O)c2cc(N[C@H](C)C3CC3)nc(-c3cnn4ccsc34)n2)CC1 [Example 74, Ethyl (1-{[6-{[(1R)-1-cycloproropylethyl]amino}-2-(pyrazolo[5,1-b][1,3]thiazol-7-yl)pyrimidin-4-yl]carbonyl}piperidin-4-yl)carbamate hydrochloride] | 95 | 2600 | 3100 | – | 34 | –
CCOC(=O)NC1CCN(C(=O)c2cc(N[C@H](C)C3CC3)nc(-c3cnn4ccsc34)n2)CC1 [Example 73, Ethyl (1-{[6-{[(1R)-1-cyclopropylethyl]amino}-2-(pyrazolo[5,1-b][1,3]thiazol-7-yl)pyrimidin-4-yl]carbonyl}piperidin-4-yl)carbamate] | 73 | 2200 | 3200 | – | – | 64
COC(=O)NC1CCN(C(=O)c2cc(N[C@@H](C)C(C)C)nc(-c3cnn4ccsc34)n2)CC1 [Example 25, Methyl (l-{[6-{[(2S)-3-methylbutan-2-yl]amino}-2-(pyrazolo[5,1-b][1,3]thiazol-7-yl)pyrimidin-4-yl]carbonyl}piperidin-4-yl)carbamate hydrochloride] | 200 | 2000 | 800 | 30 | – | –
CC(C)(C)Nc1cc(C(=O)N2CCC(O)CC2)nc(-c2cnn3ccsc23)n1 [Example 58, [6-(tert-Butylamino)-2-(pyrazolo[5,1-b][1,3]thiazol-7-yl)pyrimidin-4-yl](4-hydroxypiperidin-1-yl)methanone] | 400 | > 10000 | 2900 | 37 | – | –
CCOC(=O)NC1CCN(C(=O)c2cc(N[C@@H](C)C3CC3)nc(-c3cnn4ccsc34)n2)CC1 [Example 28, Ethyl (1-{[6-{[(1S)-1-cyclopropylethyl]amino}-2-(pyrazolo[5,1-b][1,3]thiazol-7-yl)pyrimidin-4-yl]carbonyl}piperidin-4-yl)carbamate] | 120 | > 10000 | 2100 | 52 | – | –
CC(C)OC(=O)NC1CCN(C(=O)c2cc(N[C@@H](C)C3CC3)nc(-c3cnn4ccsc34)n2)CC1 [Example 41, Propan-2-yl (1-{[6-{[(1S)-1-cyclopropylethyl]amino}-2-(pyrazolo[5,1-b][1,3]thiazol-7-yl)pyrimidin-4-yl]carbonyl}piperidin-4-yl)carbamate] | 96 | > 10000 | 2700 | 51 | – | –
C[C@@H](Nc1cc(C(=O)N2CCC(NC(=O)C3CC3)CC2)nc(-c2cnn3ccsc23)n1)C(C)(C)C [Example 16, N-(1-{[6-{[(2R)-3,3-Dimethylbutan-2-yl]amino}-2-(pyrazolo[5,1-b][1,3]thiazol-7-yl)pyrimidin-4-yl]carbonyl}piperidin-4-yl)cyclopropanecarboxamide] | 53 | 2200 | 2200 | 33 | – | –
C[C@H](Nc1cc(C(=O)N2CCC(O)CC2)nc(-c2cnn3ccsc23)n1)C1CC1 [Example 20, [6-{[(1S)-1-Cyclopropylethyl]amino}-2-(pyrazolo[5,1-b][1,3]thiazol-7-yl)pyrimidin-4-yl](4-hydroxypiperidin-1-yl)methanone hydrochloride] | 1400 | 4200 | 4700 | 61 | – | –
C[C@@H](C1CC1)N(C)c1cc(C(=O)N2CCC(NC(=O)C3CC3)CC2)nc(-c2cnn3ccsc23)n1 [Example 33, N-(1-{[6-{[(1S)-1-Cyclopropylethyl](methyl)amino}-2-(pyrazolo[5,1-b][1,3]thiazol-7-yl)pyrimidin-4-yl]carbonyl}piperidin-4-yl)cyclopropanecarboxamide hydrochloride] | 130 | 1700 | 1700 | 37 | – | –
COC(=O)NC1CCN(C(=O)c2cc(N[C@@H](C)C(C)(C)C)nc(-c3cnn4ccsc34)n2)CC1 [Example 22, Methyl (1-{[6-{[(2S)-3,3-dimethylbutan-2-yl]amino}-2-(pyrazolo[5,1-b][1,3]thiazol-7-yl)pyrimidin-4 yl]carbonyl}piperidin-4-yl)carbamate] | 130 | 3700 | 800 | 57 | – | –
